Source: patent publication US10774051B2, “6-membered heterocyclic derivatives and pharmaceutical composition comprising the same” (Shionogi & Co., Ltd., priority 2015, dated 2020)

molecular target: human P2X7 receptor (Homo sapiens, UniProt Q99572, R270H/Y155H); test: Evaluation of human P2X7 receptor inhibitory activity (Yo-Pro uptake, BzATP stimulation, FLIPR TETRA); type: cell-based; details: 1321N1 cells stably expressing human P2X7 receptor; BzATP stimulation, Yo-Pro uptake; read-out: IC50 (antagonistic activity for the human P2X7 receptor)
Procedure: Stably expressing cell line (1321N1 cell transfected with the human P2X7 receptor gene (GenBank accession number NM_002562.5 including T606C and G952A SNP)) was used. The cells were seeded in a 384-well microtiter plate at a concentration of 8000 cells/well and cultured in the medium (10% fetal bovine serum, 25 mM HEPES, 1% penicillin and streptomycin in DMEM) for one day at 37° C. under 5% carbon dioxide atmosphere. After replacing with 20 μL of the HBSS buffer (20 mM HEPES, 55.6 mM D-glucose, 1×HBSS(−), pH7.4-7.5), 15 μL of 17.3 μM Yo-Pro solution in the HBSS buffer was added. The plate was placed in high-throughput cellular screening system FLIPR TETRA (Molecullar Devices, LLC.) and 15 μL of 130 μM BzATP solution in the HBSS buffer was added. Measurement of fluorescence intensity by FLIPR TETRA was started. After eight minutes, 15 μL of DMSO solutions containing different concentrations of the compound of the present invention as prepared by dilution with the HBSS buffer were dispensed to each well through the built-in automatic dispenser, and the measurement of fluorescence intensity was continued for 20 minutes. […] Changing values of fluorescence intensity by the compound of the present invention were calculated by difference between maximum and minimum fluorescence intensity for 20 minutes. Inhibition ratios (%) were calculated from the following equation:
[formula] IC50 was calculated using logistic approximation.

Structure (SMILES)	IC50
COc1cn(Cc2ccccc2)c(Nc2cccc3sccc23)nc1=O [Compound I-0104]	41 nM
COc1cn(Cc2ccccc2)c(Nc2cccc3c2CCO3)nc1=O [Compound I-0120]	670 nM
COc1cn(Cc2ccccc2)c(NCc2cccc(Cl)c2C)nc1=O [Compound I-0121]	280 nM
Cc1c(Cl)cccc1Nc1nc(=O)c(OCc2ccccc2)cn1Cc1ccccc1 [Compound I-0149]	26 nM
COc1cn(Cc2ccccc2F)c(Nc2cc(C)c(C)cc2C)nc1=O [Compound I-0176]	13 nM
CCc1cc2c(cc1Nc1nc(=O)c(OC)cn1Cc1ccccc1F)CCC2 [Compound I-0178]	21 nM
COc1cn(Cc2ccccc2)c(Nc2cncc(Cl)c2C)nc1=O [Compound I-0185]	270 nM
CCc1cc2c(cc1Nc1nc(=O)c(F)cn1Cc1ccc(F)cc1)CCC2 [Compound I-0186]	2 nM
COc1cn(Cc2ccccc2)c(NC2CCc3ccccc3C2)nc1=O (stereo not shown) [Compound I-0187]	230 nM
COc1cn(Cc2ccccc2)c(Nc2cccc3c2CCCC3)nc1=O [Compound I-0190]	71 nM

same assay, conditions: 1321N1 cells stably expressing human P2X7 receptor; BzATP stimulation, Yo-Pro uptake; read-out: IC50 (antagonistic activity for the human P2X7 receptor), class symbol

Structure (SMILES)	IC50
COc1cn(Cc2ccccc2)c(Nc2cccc3occc23)nc1=O [Compound I-0103]	100 to 500 nM
CCc1ccccc1Nc1nc(=O)c(Cl)cn1Cc1ccccc1 [Compound I-0105]	100 to 500 nM
COc1cn(Cc2ccccc2)c(Nc2ccc(C)cc2C)nc1=O [Compound I-0106]	10 to 100 nM
CCc1ccccc1Nc1nc(=O)c(Br)cn1Cc1ccccc1 [Compound I-0107]	100 to 500 nM
Cc1cccc(Nc2nc(=O)c(Br)cn2Cc2ccccc2)c1C [Compound I-0108]	10 to 100 nM
CCCc1ccccc1Nc1nc(=O)c(OC)cn1Cc1ccccc1 [Compound I-0109]	500 to 1000 nM
COc1cn(Cc2ccccc2)c(Nc2cccc(CO)c2C)nc1=O [Compound I-0110]	100 to 500 nM
Cc1c(Cl)cccc1Nc1nc(=O)c(C(=O)OC(C)(C)C)cn1Cc1ccccc1 [Compound I-0111]	100 to 500 nM
Cc1cccc(Nc2nc(=O)c(C(=O)O)cn2Cc2ccccc2)c1Cl [Compound I-0112]	10 to 100 nM
COc1ccccc1CNc1nc(=O)c(OC)cn1Cc1ccccc1 [Compound I-0113]	500 to 1000 nM
CCc1ccccc1CNc1nc(=O)c(OC)cn1Cc1ccccc1 [Compound I-0114]	100 to 500 nM
COc1cccc(Nc2nc(=O)c(OC)cn2Cc2ccccc2)c1Cl [Compound I-0115]	10 to 100 nM
CCc1cc2c(cc1Nc1nc(=O)c(OC)cn1Cc1ccccc1)CCC2 [Compound I-0116]	< 10 nM
COc1cn(Cc2ccccc2)c(Nc2cccc3c2ccn3C)nc1=O [Compound I-0117]	10 to 100 nM
COc1cn(Cc2ccccc2)c(Nc2ccccc2Cc2ccccc2)nc1=O [Compound I-0118]	10 to 100 nM
COc1cn(Cc2ccccc2)c(Nc2cc(C)c(C)cc2C)nc1=O [Compound I-0124]	< 10 nM
COc1cn(Cc2ccccc2Cl)c(Nc2cccc(Cl)c2C)nc1=O [Compound I-0125]	10 to 100 nM
COc1cn(Cc2cccc(Cl)c2)c(Nc2cccc(Cl)c2C)nc1=O [Compound I-0126]	10 to 100 nM
COc1cn(Cc2ccc(Cl)cc2)c(Nc2cccc(Cl)c2C)nc1=O [Compound I-0127]	10 to 100 nM
Cc1cccc(Nc2nc(=O)c(F)cn2Cc2ccccc2)c1C [Compound I-0128]	10 to 100 nM
COc1cn(Cc2ccccc2)c(Nc2cccc(OC(C)C)c2C)nc1=O [Compound I-0129]	100 to 500 nM
COc1c(C)cccc1Nc1nc(=O)c(OC)cn1Cc1ccccc1 [Compound I-0130]	100 to 500 nM
COc1cn(Cc2ccccc2)c(NCc2c(C)cccc2C)nc1=O [Compound I-0131]	100 to 500 nM

Structure (SMILES)	IC50
COc1cn(Cc2ccccc2)c(Nc2ccc(Cl)c(Cl)c2Cl)nc1=O [Compound I-0132]	100 to 500 nM
COc1cn(Cc2ccccc2)c(Nc2cccc(OC(F)F)c2Cl)nc1=O [Compound I-0133]	100 to 500 nM
COc1cn(Cc2ccccc2)c(Nc2cccc3[nH]c(C)cc23)nc1=O [Compound I-0134]	10 to 100 nM
CCc1cccc(Nc2nc(=O)c(OC)cn2Cc2ccccc2)c1CC [Compound I-0136]	< 10 nM
CCOc1cn(Cc2ccccc2)c(Nc2cccc(Cl)c2C)nc1=O [Compound I-0137]	10 to 100 nM
COc1cn(Cc2ccccc2)c(Nc2cccc(Oc3ccccc3)c2C)nc1=O [Compound I-0138]	500 to 1000 nM
Cc1cccc(Nc2nc(=O)c(F)cn2Cc2ccc(F)cc2)c1C [Compound I-0139]	< 10 nM
CCc1ccccc1Nc1nc(=O)c(F)cn1Cc1ccc(F)cc1 [Compound I-0140]	10 to 100 nM
COc1cn(Cc2ccc(F)cc2)c(Nc2cccc(C)c2C)nc1=O [Compound I-0141]	10 to 100 nM
Cc1c(Cl)cccc1Nc1nc(=O)c(OC(C)C)cn1Cc1ccccc1 [Compound I-0142]	10 to 100 nM
COc1cn(Cc2ccccc2)c(Nc2cc(C(C)C)ccc2C)nc1=O [Compound I-0143]	10 to 100 nM
COc1cn(Cc2ccccc2)c(Nc2cc(Br)ccc2Cl)nc1=O [Compound I-0144]	100 to 500 nM
COc1cn(Cc2ccccc2)c(Nc2cc(Cl)cc(Cl)c2Cl)nc1=O [Compound I-0145]	10 to 100 nM
COc1cn(Cc2ccccc2)c(Nc2cc(C)ccc2Cl)nc1=O [Compound I-0146]	10 to 100 nM
COc1ccc(Nc2nc(=O)c(OC)cn2Cc2ccccc2)c(C)c1 [Compound I-0147]	10 to 100 nM
Cc1ccc(N2CCCS2(=O)=O)cc1Nc1nc(=O)c(F)cn1Cc1ccccc1 [Compound I-0148]	10 to 100 nM
COC(=O)c1ccc(C)c(Nc2nc(=O)c(OC)cn2Cc2ccccc2)c1 [Compound I-0150]	100 to 500 nM
COc1ccc(Cl)c(Nc2nc(=O)c(OC)cn2Cc2ccccc2)c1 [Compound I-0152]	100 to 500 nM
Cc1cccc(C)c1Nc1nc(=O)c(F)cn1Cc1ccccc1 [Compound I-0153]	10 to 100 nM
COc1cn(Cc2ccccc2)c(Nc2cc(Cl)c(Cl)cc2Cl)nc1=O [Compound I-0154]	100 to 500 nM
COc1cn(Cc2ccccc2)c(Nc2cc([N+](=O)[O-])ccc2C)nc1=O [Compound I-0155]	500 to 1000 nM
COc1cn(Cc2ccccc2)c(Nc2cc(O)ccc2Cl)nc1=O [Compound I-0156]	100 to 500 nM
CCc1ccccc1Nc1nc(=O)c(F)cn1Cc1ccccc1 [Compound I-0157]	10 to 100 nM

Structure (SMILES)	IC50
Cc1cccc(Nc2nc(=O)c(Cl)cn2Cc2ccccc2)c1C [Compound I-0158]	10 to 100 nM
CCc1cc(Cl)ccc1Nc1nc(=O)c(OC)cn1Cc1ccccc1 [Compound I-0161]	10 to 100 nM
COc1cn(Cc2ccc(F)cc2)c(Nc2cc(C)c(C)cc2C)nc1=O [Compound I-0162]	< 10 nM
CCc1cc2c(cc1Nc1nc(=O)c(OC)cn1Cc1ccc(F)cc1)CCC2 [Compound I-0163]	< 10 nM
CCc1cc2c(cc1Nc1nc(=O)c(OC)cn1Cc1cccc(Cl)c1)CCC2 [Compound I-0164]	< 10 nM
COc1cn(Cc2cccc(Cl)c2)c(Nc2cc(C)c(C)cc2C)nc1=O [Compound I-0165]	< 10 nM
COc1cn(Cc2ccc(F)c(Cl)c2)c(Nc2cccc(Cl)c2C)nc1=O [Compound I-0166]	< 10 nM
COc1cn(Cc2ccccc2F)c(Nc2cc(C)c(Cl)cc2C)nc1=O [Compound I-0167]	10 to 100 nM
COc1cn(Cc2cccc(F)c2)c(Nc2cc(C)c(Cl)cc2C)nc1=O [Compound I-0168]	< 10 nM
COc1cn(Cc2ccc(F)cc2)c(Nc2cc(C)c(Cl)cc2C)nc1=O [Compound I-0169]	< 10 nM
COc1cn(Cc2ccccc2Cl)c(Nc2cc(C)c(Cl)cc2C)nc1=O [Compound I-0170]	100 to 500 nM
COc1cn(Cc2ccc(Cl)cc2)c(Nc2cc(C)c(Cl)cc2C)nc1=O [Compound I-0171]	10 to 100 nM
COc1cn(Cc2cccc(Cl)c2)c(Nc2cc(C)c(Cl)cc2C)nc1=O [Compound I-0172]	10 to 100 nM
COc1cn(Cc2ccccc2)c(N[C@@H]2CCCc3ccccc32)nc1=O [Compound I-0173]	100 to 500 nM
CCc1ccc(Cl)cc1Nc1nc(=O)c(OC)cn1Cc1ccccc1 [Compound I-0175]	10 to 100 nM
COc1cn(Cc2cccc(F)c2)c(Nc2cc(C)c(C)cc2C)nc1=O [Compound I-0177]	< 10 nM
CCc1cc2c(cc1Nc1nc(=O)c(OC)cn1Cc1cccc(F)c1)CCC2 [Compound I-0179]	< 10 nM
COc1cn(Cc2ccccc2)c(Nc2cc(CO)ccc2C)nc1=O [Compound I-0180]	10 to 100 nM
COc1cn(Cc2ccccc2)c(Nc2cc(C(N)=O)ccc2Cl)nc1=O [Compound I-0181]	500 to 1000 nM
COc1cc(C)c(Nc2nc(=O)c(OC)cn2Cc2ccccc2)cc1OC [Compound I-0182]	< 10 nM
COc1cc(C)c(Nc2nc(=O)c(F)cn2Cc2ccccc2)cc1OC [Compound I-0183]	10 to 100 nM
COc1cn(Cc2ccccc2)c(Nc2ccc(Br)cc2Cc2ccccc2)nc1=O [Compound I-0184]	100 to 500 nM
COc1cn(Cc2ccccc2)c(Nc2ccc(OC(C)C)cc2C)nc1=O [Compound I-0191]	100 to 500 nM
